Data reported in the NIST ThermoML archive (doi:10.1016/j.jct.2006.07.017).

How the values were obtained:
[1] = 298.15 K; 101.33 kPa; Liquid
[2] = refractive index (Na D-line) (dimensionless); conditions: 298.15 K; 101.33 kPa; Liquid; Standard Abbe refractometry
[3] = xn = mol fraction of the nth substance listed; conditions: 101 kPa, Liquid

Cc1ccccc1C [1,2-dimethylbenzene]
Conditions	mass density [kg/m3]	refractive index
[1]	875.73	–
[2]	–	1.5057

Cc1cccc(C)c1 [1,3-dimethylbenzene]
Conditions	mass density [kg/m3]	refractive index
[1]	859.83	–
[2]	–	1.4973

Cc1ccc(C)cc1 [1,4-dimethylbenzene]
Conditions	mass density [kg/m3]	refractive index
[1]	856.58	–
[2]	–	1.4958

Cc1ccc(C)cc1 [1,4-dimethylbenzene] + CN(C)C=O
[3]
Conditions	mass density [kg/m3]
293.15 K, x1 = 0.0562	941.87
293.15 K, x1 = 0.1211	934.47
293.15 K, x1 = 0.1885	927.18
293.15 K, x1 = 0.2532	920.51
293.15 K, x1 = 0.3225	913.72
293.15 K, x1 = 0.3865	907.74
293.15 K, x1 = 0.4525	901.85
293.15 K, x1 = 0.5121	896.75
293.15 K, x1 = 0.5853	890.75
293.15 K, x1 = 0.6441	886.12
293.15 K, x1 = 0.7154	880.72
293.15 K, x1 = 0.7664	876.98
293.15 K, x1 = 0.8353	872.08
293.15 K, x1 = 0.8901	868.29
293.15 K, x1 = 0.9577	863.74
303.15 K, x1 = 0.0625	931.96
303.15 K, x1 = 0.1321	924.04
303.15 K, x1 = 0.1912	917.66
303.15 K, x1 = 0.2684	909.75
303.15 K, x1 = 0.3325	903.53
303.15 K, x1 = 0.3965	897.61
303.15 K, x1 = 0.4584	892.15
303.15 K, x1 = 0.5214	886.82
303.15 K, x1 = 0.5853	881.64
303.15 K, x1 = 0.6485	876.73
303.15 K, x1 = 0.7112	872.04
303.15 K, x1 = 0.7866	866.61
303.15 K, x1 = 0.8415	862.79
303.15 K, x1 = 0.9054	858.48
303.15 K, x1 = 0.9658	854.51
313.15 K, x1 = 0.0455	924.59
313.15 K, x1 = 0.1112	916.97
313.15 K, x1 = 0.1862	908.77
313.15 K, x1 = 0.2562	901.56
313.15 K, x1 = 0.3215	895.19
313.15 K, x1 = 0.3952	888.37
313.15 K, x1 = 0.4514	883.43
313.15 K, x1 = 0.5111	878.4
313.15 K, x1 = 0.5841	872.52
313.15 K, x1 = 0.6451	867.83
313.15 K, x1 = 0.7124	862.86
313.15 K, x1 = 0.7854	857.69
313.15 K, x1 = 0.8451	853.61
313.15 K, x1 = 0.9011	849.9
313.15 K, x1 = 0.9655	845.75

CN(C)C=O [dimethylformamide]
Conditions	mass density [kg/m3]	refractive index
[1]	943.85	–
[2]	–	1.4307
